Laboratory results taken from US11730705B2, “Small molecule CMKLR1 antagonists in inflammatory disease” (The Board of Trustees of the Leland Stanford Junior …, priority 2019, dated 2023).

Experiments:
(hu)CMKLR1 L1.2 cells = target: T1, (hu)CMKLR1 L1.2 cells (Homo sapiens, UniProt Q99788); experiment: Chemotaxis assay (chemerin-dependent CMKLR1+ cell migration); type: cell-based; conditions: Table 3; migration toward huChemerin, 2 h transwell; read-out: Chemotaxis IC50 μM mean ± SEM (n)
T1 construct: expressed in transfected cells; host or cells: L1.2 pre-B cell lymphoma cells
T1 sequence (Q99788 1-373): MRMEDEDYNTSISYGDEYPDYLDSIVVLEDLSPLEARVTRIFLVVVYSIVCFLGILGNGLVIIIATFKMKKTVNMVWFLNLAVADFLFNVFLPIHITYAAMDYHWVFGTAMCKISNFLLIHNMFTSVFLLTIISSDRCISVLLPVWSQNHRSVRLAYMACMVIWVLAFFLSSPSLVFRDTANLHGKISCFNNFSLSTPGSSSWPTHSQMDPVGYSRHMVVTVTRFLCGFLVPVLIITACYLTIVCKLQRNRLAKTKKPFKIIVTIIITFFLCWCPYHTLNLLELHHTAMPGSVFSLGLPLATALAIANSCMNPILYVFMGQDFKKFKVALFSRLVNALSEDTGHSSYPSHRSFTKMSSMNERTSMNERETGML
Description: Cell culture. (hu)CMKLR1 transfectants (generated in L1.2 pre-B cell lymphoma cells) were grown in RPMI 1640 (Corning) supplemented with L-glutamine, penicillin-streptomycin, and 10% BCS and G418-sulfate (KSE Scientific). DiscoverX PathHunter® CHO-K1 CMKLR1 β-Arrestin Cells were grown in RPMI lacking phenol red (Gibco, Life Technologies), supplemented with L-glutamine, penicillin-streptomycin, sodium pyruvate, non-essential amino acid, BCS, hygromycin, and G418-sulfate.
Chemotaxis assay. (hu)CMKLR1 L1.2 cells at 1×10^6 cell/ml were treated with 5 mM sodium butyrate (Sigma) overnight to induce hCMKLR1 expression. The next day, cells were washed in migration media (RPMI+0.5% BSA) and resuspended at 1.5-3×10^6 cell/ml. Cells were pre-incubated at RT for 10 min with various concentrations of α-NETA or test compounds (α-NETA and test compounds were reconstituted in DMSO; final DMSO concentration in each well was 0.1%). 100 ul of cells were added to the upper chamber of a 24-well transwell plate (5 um pore size, Costar). Cells were allowed to migrate toward huChemerin ([…] in migration media, bottom chamber) for 2 h, 37° C., 5% CO2. The number of migrated cells was quantified by flow cytometry (BD LSR2), and live cells were distinguished based on FSC×SSC properties. The background for this assay was typically low with 0 cells migrating to the buffer alone. For each independent trial, data was normalized to the maximum migration per compound tested and an IC50 value was generated using GraphPad Prism software. The average IC50 value for n independent trials (as specified in the table) is reported.

EAE in C57BL/6 mice = experiment: EAE induced by MOG35-55/CFA immunization; type: in vivo, mouse; conditions: FIG. 1C; 10 mg/kg daily; compared with Tecfidera or vehicle control
Description: FIG. 1A-1D. […] (FIG. 1D) The integrated clinical score over time for each animal was calculated as area under the curve (AUC).
EAE. […] CFA consisted of 5 mg/ml mTB (Mycobacterium-tuberculosis H37 Ra, BD Difco) in IFA (Incomplete Freund's Adjuvant, Sigma). MOG35-55 was reconstituted at 2 mg/ml in PBS. Mice also received 200 ng pertussis toxin (List Biological Laboratories, Inc) by i.p. injection at the time of immunization and two days later. […] For a direct comparison to α-NETA, the DMF and compound doses were also 10 mg/kg in 10% captisol. Mice were monitored daily for clinical disease and scored (0=normal/healthy, 1=limp tail, 2=hindlimb weakness, 3=hindlimb paralysis, 4=hindlimb and forelimb paralysis, 5=moribund/dead).

[1] = system: cytochrome P450 (Cyp) drug metabolizing enzymes; experiment: Time-dependent (mechanism-based) Cyp inhibition; type: in vitro ADME, human
Description: Cyp enzyme inhibition. Human liver microsomes were pre-incubated with 7 concentrations ([…], duplicate wells) of α-NETA for 30 min.

C57/BL6 mice = experiment: α-NETA acute single dose toxicity (LD50); type: in vivo, mouse
Text: FIG. 3. Acute single dose toxicity (LD50) of α-NETA. […] The remaining mice were monitored for 14 days. Graph depicts lethality at each dose, n=3 per mice/dose.

[2] = system: IMQ-induced psoriasis in mice; experiment: IMQ-induced psoriasis model; type: in vivo, mouse
Description: FIG. 11A-11G. […] Representative images of the same mouse shown over time. […] Mice were treated twice daily with IMQ±dexamethasone (DEX, 200 ug/mouse) 1 h prior to IMQ treatment. […] (FIG. 11G) NK cell (CD45+DX5+CD11b-CD3-CD19-) infiltration into lesional or non-lesional adjacent skin was determined by flow cytometry (6 day timepoint) for IMQ-treated WT and chemerin KO mice. mean±SEM, n=4 mice per genotype, ***p<0.005 by 2-tailed t-test; **p<0.01 by 2-tailed t-test; *p<0.05 by 1-tailed t-test.
FIG. 13A-13D. […] Fold change with respect to day 0 measurements are shown. […] For A-C, n=3 untreated, n=5 IMQ-treated mice of each genotype, mean±SEM, *p<0.05 by 2-tailed t-test.
FIG. 15A-15D. […] IC50 values were determined based on 6-point dose-response curves for each compound. (FIG. 15A) α-NETA. […] (FIG. 15A-15C) mean±SEM, n=3-18 independent experiments. […] 0.2 ml each compound (in 10% captisol) or vehicle control was administered by oral gavage beginning one day prior to psoriasis induction. Back skin thickness was measured daily and normalized to day 0. mean±SEM, n=10 mice for vehicle and α-NETA groups pooled from two independent trials; n=3 mice for (27) and (6) from one trial.

Cyp1A2 = Cyp1A2 (Homo sapiens, UniProt P05177); conditions: PubChem BioAssay ID 1476; read-out: Cyp Inhibition IC50 (μM), Cyp1A2; cited from earlier work
Sequence of Cyp1A2 (P05177 whole entry): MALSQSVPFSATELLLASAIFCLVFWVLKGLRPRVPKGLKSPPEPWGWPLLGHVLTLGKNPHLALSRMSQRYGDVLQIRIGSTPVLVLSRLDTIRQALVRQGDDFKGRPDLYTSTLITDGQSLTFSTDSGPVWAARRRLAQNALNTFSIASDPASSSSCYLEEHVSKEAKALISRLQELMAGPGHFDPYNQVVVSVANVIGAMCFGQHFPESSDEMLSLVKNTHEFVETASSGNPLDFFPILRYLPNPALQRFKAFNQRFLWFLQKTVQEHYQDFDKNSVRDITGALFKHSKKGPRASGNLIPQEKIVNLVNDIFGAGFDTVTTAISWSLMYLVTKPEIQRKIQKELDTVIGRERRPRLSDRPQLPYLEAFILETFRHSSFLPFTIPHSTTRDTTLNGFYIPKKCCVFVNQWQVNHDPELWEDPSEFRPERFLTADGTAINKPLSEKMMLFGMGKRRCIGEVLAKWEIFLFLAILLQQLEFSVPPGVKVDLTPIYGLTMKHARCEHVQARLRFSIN

Cyp3A4 = Cyp3A4 (Homo sapiens, UniProt P08684); conditions: substrate luciferin-6′ phenylpiperazinylyl; read-out: Cyp3A4 IC50 listed in PubChem; cited from earlier work
Sequence of Cyp3A4 (P08684 whole entry): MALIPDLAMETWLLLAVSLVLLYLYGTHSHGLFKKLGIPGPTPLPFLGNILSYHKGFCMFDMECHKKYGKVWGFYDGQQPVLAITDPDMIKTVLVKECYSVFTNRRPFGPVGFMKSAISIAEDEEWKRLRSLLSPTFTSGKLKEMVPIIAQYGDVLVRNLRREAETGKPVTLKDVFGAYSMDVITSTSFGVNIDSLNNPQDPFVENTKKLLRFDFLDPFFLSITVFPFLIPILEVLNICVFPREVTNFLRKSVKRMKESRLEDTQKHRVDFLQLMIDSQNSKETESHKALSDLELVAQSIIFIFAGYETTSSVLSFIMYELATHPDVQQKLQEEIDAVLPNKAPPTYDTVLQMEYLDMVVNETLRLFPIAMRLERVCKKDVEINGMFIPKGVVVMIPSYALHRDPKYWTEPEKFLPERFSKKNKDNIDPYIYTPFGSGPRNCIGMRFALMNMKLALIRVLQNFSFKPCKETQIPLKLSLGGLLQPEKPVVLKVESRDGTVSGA

[3] = 5 μg into the uterine horn on days 6, 9 and 12 following fertilization; cited from earlier work
[4] = system: Salmonella typhimurium (TA100); experiment: Ames test for genotoxicity; conditions: concentrations up to at least 10 uM

## C[N+](C)(C)CCC(=O)c1cccc2ccccc12.[I-] [α-NETA, 2-(α-naphthoyl) ethyltrimethylammonium iodide]
(hu)CMKLR1 L1.2 cells
  IC50: 37 ± 8.9 µM
EAE in C57BL/6 mice
  severity of clinical EAE: significantly suppressed
[1]
  time-dependent (mechanism-based) Cyp inhibition: No time-dependent (mechanism-based) Cyp inhibition was detected
C57/BL6 mice; p.o., mice, 10% captisol
  calculated LD50, acute single dose: 873 mg/kg
C57/BL6 mice; two highest doses (3000, 1000 mg/kg) by oral gavage
  lethality: Lethal effects were observed within hours
[2]; 10 mg/kg s.c., 24 h timepoint
  back skin thickening: significantly suppressed
[2]; 30 mg/kg p.o. daily, 7 days, vs vehicle control
  back skin acanthosis: significantly diminished
[2]; oral gavage in 10% captisol, FIG. 15D
  clinical features of experimental psoriasis: suppressed
Cyp1A2
  IC50: 8 µM
Cyp3A4
  IC50: 200 nM
[3]
  embryo resorption: significant embryo resorption
[4]
  mutagenesis (reversion of an obligate histidine mutation): did not induce mutagenesis
